# Test results reported in PMC5623904, “Structural investigation of nucleophosmin interaction with the tumor suppressor Fbw7γ” (Oncogenesis, 2017).
# Peptide text beside a SMILES is read from it. * marks the point of attachment. Dansyl = CN(C)c1cccc2c(S(=O)(=O)*)cccc12
# Tests used:
# Format in all cases: binding
# [1] = target: T1, Nter-NPM1 (residues 16-123) (Homo sapiens, UniProt P06748); test: Equilibrium fluorescence titration of dansylated peptide with Nter-NPM1; settings: for Nter-NPM1 KD: wild-type Nter-NPM1, N-terminally dansylated peptide 5 μM, protein 0 to 200/400 μM, sodium phosphate 20 mM pH 7.2, 25 °C, fluorescence ex 330 nm, triplicate, ±s.d., Ni = no interaction
# T1 construct: inferred from pET28a NdeI/BamHI cloning and HisTrap purification) (N); made in house; host or cells: Escherichia coli BL21(DE3)
# T1 sequence (P06748 16-123): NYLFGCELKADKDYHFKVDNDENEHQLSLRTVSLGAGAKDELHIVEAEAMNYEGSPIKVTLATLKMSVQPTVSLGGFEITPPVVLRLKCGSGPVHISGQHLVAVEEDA
# Protocol: (§1) All experiments were performed at 25 °C in sodium phosphate buffer 20 mM pH 7.2, or in sodium phosphate buffer 20 mM plus 100 mM NaCl pH 7.2 (which sets ionic strength to 150 mM), using a FluoroMax-4 spectrofluorometer (Jobin Yvon, Edison, NJ, USA), equipped with a water bath apparatus. Fbw7γ and CENP-W peptides, functionalized with a dansyl (5-dimetilamminonaftalen-1-sulphonyl) group at their N terminus, were purchased from JPT (Germany). Tat peptide was synthesized employing the solid phase method following standard Fmoc strategies and labeled with dansyl fluorophore at its N terminus. Crude product was purified by RP-HPLC applying a linear gradient of 0.1% TFA CH3CN in 0.1% TFA water from 5% to 65% over 12 min using a semi-preparative 2.2 × 5 cm C18 column at a flow rate of 20 ml/min. Purity and identity were confirmed by LC–MS analysis.
# (§2) Titration experiments were conducted with an excitation wavelength of 330 nm while the fluorescence emission spectra were collected in the range between 350 and 650 nm. Titrations were performed at constant peptide concentration (5 μM) and varying protein concentrations (from 0 to 200/400 μM). Titrations were performed in triplicate and data, analyzed with the Graphpad Prism software (https://www.graphpad.com/scientific-software/prism/), were reported as dissociation constant±s.d.
# (§3) Equilibrium binding curves were fitted to the standard quadratic equation: […]
# (§4) where F is the observed fluorescence signal, n and [A]0 are the total concentration of non-varied and varied species, respectively, and KD is the equilibrium dissociation constant. B and C are constants taking into account the total fluorescence change and fluorescence at [A]0=0, respectively, and k is a term describing the slope of the curve at high protein concentration. Whenever possible, under pseudo first-order conditions, the equation 1 was simplified to: […]
# [2] = target: T2, Nter-NPM1 D36A-E39A-E93A (Homo sapiens, UniProt P06748, D36A/E39A/E93A); test: Equilibrium fluorescence titration, Nter-NPM1 triple mutant; settings: dansylated peptide 5 μM; sodium phosphate 20 mM pH 7.2, 25 °C; triplicate, ±s.d.; read-out: KD, D36A-E39A-E93A
# T2 construct: inferred from pET28a NdeI/BamHI cloning and HisTrap purification) (N); made in house; host or cells: Escherichia coli BL21(DE3)
# T2 sequence (P06748 16-123 D36A/E39A/E93A): as the sequence (P06748 16-123) above, with D21A, E24A, E78A counted along it
# Protocol: (§5) Nter-NPM1 mutants were obtained by site-directed mutagenesis using the Quickchange II Lightning Site-Directed Mutagenesis kit (Stratagene, La Jolla, CA, USA), following manufacturer’s instructions. Oligonucleotides used for PCR were obtained from Primm Biotech (Milan, Italy). Forward oligonucleotides used are reported in Supplementary Table 2.
# as §1, §2, §3, §4
# [3] = target: T3, Nter-NPM1 D36A-E37A-E39A-E93A (Homo sapiens, UniProt P06748, D36A/E37A/E39A/E93A); test: Equilibrium fluorescence titration, Nter-NPM1 quadruple mutant (E37A); settings: dansylated peptide 5 μM; sodium phosphate 20 mM pH 7.2, 25 °C; triplicate, ±s.d.; read-out: KD, D36A-E37A-E39A-E93A
# T3 construct: inferred from pET28a NdeI/BamHI cloning and HisTrap purification) (N); made in house; host or cells: Escherichia coli BL21(DE3)
# T3 sequence (P06748 16-123 D36A/E37A/E39A/E93A): as the sequence (P06748 16-123) above, with D21A, E22A, E24A, E78A counted along it
# Protocol: as §5, §1, §2, §3, §4
# [4] = target: T4, Nter-NPM1 D36A-E37A-E39A-E93A-E121A (Homo sapiens, UniProt P06748, D36A/E121A/E37A/E39A/E93A); test: Equilibrium fluorescence titration, Nter-NPM1 quintuple mutant; settings: dansylated peptide 5 μM; sodium phosphate 20 mM pH 7.2, 25 °C; triplicate, ±s.d.
# T4 construct: inferred from pET28a NdeI/BamHI cloning and HisTrap purification) (N); made in house; host or cells: Escherichia coli BL21(DE3)
# T4 sequence (P06748 16-123 D36A/E37A/E39A/E93A/E121A): as the sequence (P06748 16-123) above, with D21A, E22A, E24A, E78A, E106A counted along it
# Protocol: as §5, §1, §2, §3, §4
# [5] = target: T5, Nter-NPM1 D36A-E39A-E93A-E121A (Homo sapiens, UniProt P06748, D36A/E121A/E39A/E93A); test: Equilibrium fluorescence titration, Nter-NPM1 quadruple mutant (E121A); settings: dansylated peptide 5 μM; sodium phosphate 20 mM pH 7.2, 25 °C; triplicate, ±s.d.
# T5 construct: inferred from pET28a NdeI/BamHI cloning and HisTrap purification) (N); made in house; host or cells: Escherichia coli BL21(DE3)
# T5 sequence (P06748 16-123 D36A/E39A/E93A/E121A): as the sequence (P06748 16-123) above, with D21A, E24A, E78A, E106A counted along it
# Protocol: as §5, §1
# as §2, with “constant±s.d. […]” for “constant±s.d.”
# as §4, with “concentration.” for “concentration. Whenever possible, under pseudo first-order conditions, the equation 1 was simplified to:”
Nter-NPM1 KD [1],Nter-NPM1 KD ([1]; listed as unrelated short),Nter-NPM1 KD ([1]; listed as unrelated long),"Kd ([1]; SD, read-out: Nter-NPM1 KD) [µM]",Kd [2] [µM],Kd [3] [µM],Kd [4] [µM],Kd [5] [µM],Compound
Ni,No interaction,–,–,–,–,–,–,"VLSQK [Unreleted short, reference compound]"
Ni,–,No interaction,–,–,–,–,–,"DDEAQTLAKFVLSQK [Unrelated long, reference compound]"
–,–,–,6.2 ± 0.9,18.4 ± 2.6,71.4 ± 9.1,734 ± 158,82.8 ± 5.6,CC(C)C[C@H](NC(=O)[C@H](Cc1ccccc1)NC(=O)CNC(=O)[C@H](CCCNC(=N)N)NC(=O)[C@@H]1CCCN1C(=O)[C@H](C)NC(=O)[C@H](CCCCN)NC(=O)[C@H](CCCNC(=N)N)NC(=O)[C@H](CCCCN)NS(=O)(=O)c1cccc2c(N(C)C)cccc12)C(=O)N[C@@H](CCCCN)C(=O)N[C@@H](CCCNC(=N)N)C(=O)N[C@H](C(=O)N[C@@H](Cc1ccccc1)C(=O)N[C@@H](CCCCN)C(=O)N[C@@H](CCCNC(=N)N)C(=O)N[C@@H](CCCCN)C(=O)N[C@@H](CCCCN)C(=O)O)C(C)C [CENP-W*] (Dansyl-KRKAPRGFLKRVFKRKK-OH)
